Our source for the activity coefficient values is the NIST ThermoML archive (doi:10.1016/j.fluid.2018.09.024).

± gives the expanded uncertainty stated by the source.

This data set is described as follows: activity coefficient (dimensionless); of the first substance listed, at infinite dilution; xn = mol fraction of the nth substance listed. The following applies: 101.33 kPa, Liquid, Chromatography, x1 = 0.

Turning to `C1CCCCCCC1` [cyclooctane] + CCCCCCCCCCCC[N+](C)(C)CCOc1ccccc1.O=S(=O)([N-]S(=O)(=O)C(F)(F)F)C(F)(F)F, the activity coefficient reads like this: (318.15 K) 2.57 ± 0.17; (328.15 K) 2.61 ± 0.18; (338.15 K) 2.65 ± 0.18; (348.15 K) 2.68 ± 0.18; (358.15 K) 2.71 ± 0.18; (368.15 K) 2.75 ± 0.19.
Take `CCCCCCCCCC` [decane] + CCCCCCCCCCCC[N+](C)(C)CCOc1ccccc1.N#C[N-]C#N: the activity coefficient is, setting by setting: (328.15 K) 9.02 ± 0.62; (338.15 K) 9.17 ± 0.63; (348.15 K) 9.31 ± 0.64; (358.15 K) 9.45 ± 0.64; (368.15 K) 9.6 ± 0.65; (378.15 K) 9.75 ± 0.67.
As to `CCCCCCCCCC` [decane] + CCCCCCCCCCCC[N+](C)(C)CCOc1ccccc1.O=S(=O)([N-]S(=O)(=O)C(F)(F)F)C(F)(F)F, the activity coefficient was found to be 5.72 ± 0.39 (318.15 K); 5.8 ± 0.4 (328.15 K); 5.87 ± 0.4 (338.15 K); 5.92 ± 0.4 (348.15 K); 5.98 ± 0.41 (358.15 K); 6.03 ± 0.41 (368.15 K).
Take `CCOCC` [diethyl ether] + CCCCCCCCCCCC[N+](C)(C)CCOc1ccccc1.N#C[N-]C#N: the activity coefficient is 2.17 ± 0.15 (328.15 K); 2.22 ± 0.15 (338.15 K); 2.28 ± 0.16 (348.15 K); 2.34 ± 0.16 (358.15 K); 2.39 ± 0.16 (368.15 K); 2.44 ± 0.17 (378.15 K).
With `CCOCC` [diethyl ether] + CCCCCCCCCCCC[N+](C)(C)CCOc1ccccc1.O=S(=O)([N-]S(=O)(=O)C(F)(F)F)C(F)(F)F, the activity coefficient is, setting by setting: (318.15 K) 1.06 ± 0.07; (328.15 K) 1.12 ± 0.07; (338.15 K) 1.18 ± 0.08; (348.15 K) 1.24 ± 0.08; (358.15 K) 1.3 ± 0.08; (368.15 K) 1.36 ± 0.09.
Take `CC(C)OC(C)C` [diisopropyl ether] + CCCCCCCCCCCC[N+](C)(C)CCOc1ccccc1.N#C[N-]C#N: the activity coefficient worked out at 4.03 ± 0.27 (328.15 K); 4.12 ± 0.28 (338.15 K); 4.22 ± 0.29 (348.15 K); 4.29 ± 0.29 (358.15 K); 4.36 ± 0.3 (368.15 K); 4.43 ± 0.3 (378.15 K).
For the compound `CC(C)OC(C)C` [diisopropyl ether] + CCCCCCCCCCCC[N+](C)(C)CCOc1ccccc1.O=S(=O)([N-]S(=O)(=O)C(F)(F)F)C(F)(F)F, the activity coefficient by setting is: (318.15 K) 1.9 ± 0.13; (328.15 K) 1.97 ± 0.13; (338.15 K) 2.03 ± 0.14; (348.15 K) 2.1 ± 0.14; (358.15 K) 2.16 ± 0.15; (368.15 K) 2.22 ± 0.15.
Regarding `CCCOCCC` [dipropyl ether] + CCCCCCCCCCCC[N+](C)(C)CCOc1ccccc1.N#C[N-]C#N, the activity coefficient runs as follows: (328.15 K) 3.36 ± 0.23; (338.15 K) 3.46 ± 0.24; (348.15 K) 3.54 ± 0.24; (358.15 K) 3.61 ± 0.25; (368.15 K) 3.68 ± 0.25; (378.15 K) 3.76 ± 0.26.
As to `CCCOCCC` [dipropyl ether] + CCCCCCCCCCCC[N+](C)(C)CCOc1ccccc1.O=S(=O)([N-]S(=O)(=O)C(F)(F)F)C(F)(F)F, the activity coefficient (318.15 K) was determined as 1.78 ± 0.12; the activity coefficient (328.15 K) was determined as 1.85 ± 0.12; the activity coefficient (338.15 K) was 1.92 ± 0.13; the activity coefficient (348.15 K) is 1.99 ± 0.14; the activity coefficient (358.15 K) came out at 2.06 ± 0.14; the activity coefficient (368.15 K) came out at 2.13 ± 0.14.
In the case of `CCO` [ethanol] + CCCCCCCCCCCC[N+](C)(C)CCOc1ccccc1.N#C[N-]C#N, the activity coefficient was determined as 0.411 ± 0.034 (328.15 K); 0.421 ± 0.035 (338.15 K); 0.429 ± 0.035 (348.15 K); 0.438 ± 0.035 (358.15 K); 0.446 ± 0.036 (368.15 K); 0.453 ± 0.036 (378.15 K).
